# Experimental data: patent US8835403B2, “Algin oligosaccharides and the derivatives thereof as well as the manufacture and the use of the same” (priority 2004, dated 2014)
# How the values were obtained:
# [1] = biological target: Aβ (Homo sapiens, UniProt P05067); experiment: Binding site of 6-mer on Aβ (further studies)
# [2] = system: apoptotic cascade induced by Aβ; experiment: Apoptotic cascade markers induced by Aβ; type: cell-based
# [3] = biological target: T1, Aβ1-40 (Homo sapiens, UniProt P05067); experiment: Conformation of Aβ1-40 by CD spectra; type: biochemical; conditions: 6-mer 100 μg/ml, Aβ1-40 250 μg/ml, 37° C., 12 h (FIG. 11C)
# T1 sequence (P05067 672-711 limits assumed): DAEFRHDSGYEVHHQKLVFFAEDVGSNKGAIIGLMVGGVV
# Description: CD spectra (J-[…], JASCO, Japan) of monomeric Aβ1-40 (250 μg/ml in TBS (100 mM Tris, 50 mM NaCl, pH7.4)) incubated at 37° C. for 12 h is mainly characterized by β-sheet secondary structure (FIG. 11A).
# [4] = biological target: T1, Aβ1-40; experiment: Fibril formation of Aβ1-40, Th-T fluorescence; type: biochemical; conditions: 24 h
# Description: Fresh Aβ1-40 is incubated alone or with 6-mer (final concentration of 10, 50, and 100 μg/ml, respectively) at 37° C. for 24 h. After incubation, Th-T is added and fluorescence intensity is monitored at […].
# [5] = system: AD mice induced by Aβ1-40; experiment: Step-through passive avoidance task of AD mice induced by Aβ1-40; type: in vivo
# Description: Male Balb/c mice (18-22 g, purchased from Laboratory Centre of Shandong University) are weighed and randomly assigned to six groups as follows: a control group, a model group, a low-concentration (15 mg/kg) 6-mer-treated group, a middle-concentration (30 mg/kg) 6-mer-treated group, a high-concentration (60 mg/kg) 6-mer-treated group, and a Huperzine A-treated (HBY, with a concentration of 0.2 mg/kg) group. The mice were oral administered with corresponding drugs on day 3 after grouping. The drugs were administered once a day consecutively with a dosage of 0.5 ml/20 g until the experiment is completed. The mice of control and model groups were simultaneously administered with an equivalent amount of normal saline.
# On the 25th day after Aβ injection, mice are further trained for step-through passive avoidance task. In the task, each mouse is placed in the illuminated compartment of the apparatus, facing away from the dark compartment, and the door is opened, allowing access to the dark compartment. Once the mouse enters the dark compartment, it receives an inescapable electric shock on the feet (36 V) through the stainless steel grid floor. The test is similarly performed after 24 h. The entry time of each mouse into the dark chamber (step-through latency, maximum testing limited to 3 min) and the number of entries into the dark compartment (number of errors) are recorded.
# Each group has 8 animals. The data are presented as mean±SE. The symbol # means significant difference compared with the control group (P<0.05). * means significant difference compared with the model group (P<0.05). The step-through latency of Aβ1-40-treated group is shortened (P<0.01) and the error number is increased (P<0.05) compared with that of the control group, indicating the successful establishment of AD mice.
# [6] = system: primary cerebral cortex neurons of rat; experiment: Protection of primary neurons impaired by aged Aβ25-35 (MTT); type: cell-based; conditions: 30 μM aged Aβ25-35 24 h, Aβ alone 54.5±8.9%
# Description: The primary cerebral cortex neurons of rat are cultured as the method of reference (Banker G A, et al., Rat hippocampal neurons in dispersed cell culture. Brain Res, 1977, 126:397-425). The cells cultured for 1 week are used in this experiment. That is to say, on the 8th day the cells are pretreated with a series of concentrations of 6-mer (final concentration of 0, 10, 50, 100 μg/ml) for 24 h, followed by the addition of aged Aβ25-35 (Firstly resolved in distilled water with a concentration of 1 mg/ml, then stayed at 37° C. for 7 days to get aged Aβ25-35 and stored at −20° C. for use) with a final concentration of 30 μM. After 24 h at 37° C., 10 μl of MTT with a concentration of 5 mg/ml is added. After 4 h at 37° C., the supernatant is removed and 150 μl of DMSO is added. Then the absorbance at 570 nm (630 nm as reference) is recorded with an ELISA reader (Rainbow, TECAN, Austria).
# [7] = system: MDA; experiment: MDA content of cerebral cortex and hippocampus of Aβ1-40-induced AD mice; type: in vivo
# [8] = system: diabetic mice induced by STZ; experiment: Blood glucose of diabetic mice induced by streptozotocin (STZ); type: in vivo; conditions: blood on 11th day, STZ 150 mg/kg i.p.
# Description: Sixty male NIH mice (weighed 18-22 g) are randomly divided to control, model, 50, 150, 450 mg/kg 6-mer-treated and 5 mg/kg dimethyldiguanide-treated groups. The mice are injected intraperitoneally with 150 mg/kg STZ except control group at the 1st day. Then the mice are given accordingly drugs consecutively for 10 days and eyeballs are picked out to extract blood on the 11th day. The blood is taken to measure the glucose concentration.
# [9] = system: SOD; experiment: SOD activity of cerebral cortex and hippocampus of Aβ1-40-induced AD mice; type: in vivo
# [10] = system: GSH-PX; experiment: GSH-PX activity in cerebral cortex and hippocampus of Aβ1-40-induced AD mice; type: in vivo
# Description: Following the behavioral test, rats are decapitated. Cerebral cortex and hippocampus are dissected on ice immediately, and stored at −80° C. after quick freezing in liquid nitrogen for 1 hour. MDA, SOD, GSH-PX, Na^+, K^+-ATPase, AchE and CHAT activities in the brain regions are determined using the respective kits. The homogenates of cerebral cortex and hippocampus are prepared with saline with a final concentration of 10% and 5%. The supernatant were obtained after centrifuging at 3600 rpm to test MDA, CuZn-SOD, GSH-PX, Na^+K^+-ATPase, AchE, and CHAT activities. The activity of ChAT is determined with isotope-labeled method. The other indexes and amount of total proteins are tested with the respective kits supplied by Nanjing Jiancheng Bioengineering Institute.
# The GSH-PX activity in cerebral cortex and hippocampus is decreased after usage of Aβ with significant difference to the control group in hippocampus (p<0.05).
structure (smiles),measurement,setting,value
"O=C(O)C1OC(OC2C(C(=O)O)OC(OC3C(C(=O)O)OC(OC4C(C(=O)O)OC(OC5C(C(=O)O)OC(OC6C(C(=O)O)OC(O)C(O)C6O)C(O)C5O)C(O)C4O)C(O)C3O)C(O)C2O)C(O)C(O)C1O (centres unmarked) [6-mer, mannuronic hexasaccharide]",binding site on Aβ25-35,[1],Ser26˜Lys28
same,expression of Bcl-2,[2],up-regulating
same,expression of Caspase-3,[2],down-regulating
same,expression of P53,[2],down-regulating
same,overload of intracellular calcium ion and ROS accumulation,[2],reversing
same,β-sheet formation of monomeric Aβ1-40 (CD),[3],prevents the β-sheet formation
same,Th-T fluorescence intensity,"[4]; 10 μg/ml 6-mer with fresh Aβ1-40, 37° C.",10.46±0.94
same,Th-T fluorescence intensity,"[4]; 50 μg/ml 6-mer with fresh Aβ1-40, 37° C.",9.18±1.32
same,Th-T fluorescence intensity,"[4]; 100 μg/ml 6-mer with fresh Aβ1-40, 37° C.",7.81±1.38
same,number of errors,"[5]; 6-mer-treated groups, vs model group (FIG. 6)",significantly reduced
same,step-through latency,"[5]; 30 and 60 mg/kg 6-mer, vs model group (FIG. 5)",significantly prolonged
same,survived rate,[6]; 10 μg/ml 6-mer 24 h pretreatment,72.0±11.2%
same,survived rate,[6]; 50 μg/ml 6-mer 24 h pretreatment,77.1±8.1%
same,survived rate,[6]; 100 μg/ml 6-mer 24 h pretreatment,82.3±11.6%
same,MDA content (nmol/ml) cerebral cortex,[7]; 15 mg/kg,1.79 ± 0.15 nmol/mL
same,MDA content (nmol/ml) cerebral cortex,[7]; 30 mg/kg,1.87 ± 0.18 nmol/mL
same,MDA content (nmol/ml) cerebral cortex,[7]; 60 mg/kg,1.47 ± 0.11 nmol/mL
same,MDA content (nmol/ml) hippocampus,[7]; 15 mg/kg,4.28 ± 0.82 nmol/mL
same,MDA content (nmol/ml) hippocampus,[7]; 30 mg/kg,2.48 ± 0.43 nmol/mL
same,MDA content (nmol/ml) hippocampus,[7]; 60 mg/kg,2.18 ± 0.43 nmol/mL
same,Blood glucose concentration,[8]; 50 mg/kg for 10 days,219.4 ± 67.8 mg/dL
same,Blood glucose concentration,[8]; 150 mg/kg for 10 days,179.6 ± 69.8 mg/dL
same,Blood glucose concentration,[8]; 450 mg/kg for 10 days,162.5 ± 3 mg/dL
same,SOD activity (NU/mg prot.) cerebral cortex,[9]; 15 mg/kg,49.35 ± 2.27 NU/mg prot.
same,SOD activity (NU/mg prot.) cerebral cortex,[9]; 30 mg/kg,51.84 ± 2.07 NU/mg prot.
same,SOD activity (NU/mg prot.) cerebral cortex,[9]; 60 mg/kg,57.50 ± 2.51 NU/mg prot.
same,SOD activity (NU/mg prot.) hippocampus,[9]; 15 mg/kg,69.76 ± 6.12 NU/mg prot.
same,SOD activity (NU/mg prot.) hippocampus,[9]; 30 mg/kg,61.72 ± 4.27 NU/mg prot.
same,SOD activity (NU/mg prot.) hippocampus,[9]; 60 mg/kg,79.97 ± 7.34 NU/mg prot.
same,GSH-PX (U/mg prot.) cerebral cortex,[10]; 15 mg/kg,8.53 ± 0.86 U/mg prot.
same,GSH-PX (U/mg prot.) cerebral cortex,[10]; 30 mg/kg,7.12 ± 1.10 U/mg prot.
same,GSH-PX (U/mg prot.) cerebral cortex,[10]; 60 mg/kg,10.75 ± 1.80 U/mg prot.
same,GSH-PX (U/mg prot.) hippocampus,[10]; 15 mg/kg,4.13 ± 0.58 U/mg prot.
same,GSH-PX (U/mg prot.) hippocampus,[10]; 30 mg/kg,4.25 ± 0.54 U/mg prot.
same,GSH-PX (U/mg prot.) hippocampus,[10]; 60 mg/kg,4.81 ± 0.95 U/mg prot.
